This note sets out measurements from patent publication US8501752B2, “Methods for treating cancer and other pathological proliferating disorders by inhibiting mitosis using pyrrolo[2,3-d]pyrimidines” (Duquesne University of the Holy Ghost, priority 2005, dated 2013).

One data set concerns NCI-H23. The experiment in a line: NCI IVCLSP growth inhibition (SRB), NCI-H23. The note with it: 48 h drug incubation. It is filed as cell-based, human. The protocol: (§1) FIG. 1 presents nine compounds that were tested using the National Cancer Institute (NCI) 60 human tumor cell lines. The cells lines, which represent leukemia, melanoma, and cancers of the lung, colon, brain, ovary, breast, prostate, and kidney, are listed in Table 1.
(§2) Compounds 1-9 were tested according to the NCI Developmental Therapeutics Program (DTP) In Vitro Cell Line Screening Project (IVCLSP). […] Methodology for testing under the IVCLSP is as follows: The human tumor cell lines of the cancer screening panel are grown in RPMI 1640 medium containing 5% fetal bovine serum and 2 mM L-glutamine. […]
(§3) Following drug addition, the plates are incubated for an additional 48 h at 37° C., 5% CO2, 95% air, and 100% relative humidity. […] Bound stain is subsequently solubilized with 10 mM trizma base, and the absorbance is read on an automated plate reader at a wavelength of 515 nm. […] Using the seven absorbance measurements [time zero, (Tz), control growth, (C), and test growth in the presence of drug at the five concentration levels (Ti)], the percentage growth is calculated at each of the drug concentrations levels. Percentage growth inhibition is calculated as: [(Ti−Tz)/(C−Tz)]×100 for concentrations for which Ti>/=Tz [(Ti−Tz)/Tz]×100 for concentrations for which Ti<Tz.
(§4) Three dose response parameters are calculated for each experimental agent. […]

In the next data set the test system is COLO 205. The data set can be described thus: NCI IVCLSP growth inhibition (SRB), COLO 205. The class given is cell-based, human. The note with it: 48 h drug incubation. The protocol: as §1, §2, §3, §4
A further data set has as its system SK-MEL-28. The experiment in a line: NCI IVCLSP growth inhibition (SRB), SK-MEL-28. The class given is cell-based, human. The conditions noted are these: 48 h drug incubation. The protocol: as §1, §2, §3, §4
The subject of a further data set is UACC-257. The experiment in a line: NCI IVCLSP growth inhibition (SRB), UACC-257. It is filed as cell-based, human. The note with it: 48 h drug incubation. The method, then: as §1, §2, §3, §4
A further data set concerns OVCAR-4. The experiment in a line: NCI IVCLSP growth inhibition (SRB), OVCAR-4. It is filed as cell-based, human. The note with it: 48 h drug incubation. The protocol:
as §1, §2, §3, §4

The subject of a further data set is CAKI-1. The experiment in a line: NCI IVCLSP growth inhibition (SRB), CAKI-1. The conditions noted are these: 48 h drug incubation. The class given is cell-based, human. The method, then:
as §1, §2, §3, §4

For a further data set, the system named is MALME-3M. The experiment in a line: NCI IVCLSP growth inhibition (SRB), MALME-3M. It is filed as cell-based, human. The conditions noted are these: 48 h drug incubation. The method, then:
as §1, §2, §3, §4

The subject of a further data set is HS 578T. The experiment in a line: NCI IVCLSP growth inhibition (SRB), HS 578T. The class given is cell-based, human. The conditions noted are these: 48 h drug incubation. The protocol: as §1, §2, §3, §4
The subject of data set [1] is A-10 rat smooth muscle cells. The data set can be described thus: Microtubule structure, indirect immunofluorescence, A-10 cells. The conditions noted are these: 24 hours; 625 nM TAXOL, 167 nM vinblastine, 900 nM Compound 1. The class given is cell-based. The method, then:
Because of the morphological effects of Compound 1 on cultured cells and the NCI COMPARE analysis results described above, the effects of vinblastine, TAXOL (paclitaxel), and Compound 1 on microtubule structure were examined. For these studies, A-10 rat smooth muscle cells were used since they grow as flat monolayers that are amenable to imaging. The A-10 cells were treated for 24 hours with EtOH (control), 625 nM TAXOL (paclitaxel), 167 nM vinblastine, and 900 nM of Compound 1. Microtubules were then visualized by indirect immunofluoresence staining with B-tubulin antibodies. FIGS. 2a-d present representative fields for the control, TAXOL (paclitaxel), vinblastine, and Compound 1 (“149”), respectively. None of these compounds affected the morphology of stress fibers composed of microfilaments.

The test system of the next data set is MCF-7 cells. The data set can be described thus: Cytotoxicity, drug-sensitive MCF-7 cells. The note with it: mean ± SEM for 3 experiments.
Data set [2] relates to T24, MCF-7, NCI/ADR, MCF-7/VP. The data set can be described thus: Cytotoxicity, panel of human tumor cell lines of Table 3 (text summaries).
Excerpt: (§5) These cell lines are resistant to anticancer drugs due to overexpression of the transport proteins P-glycoprotein or MRP1.

Where two headings read alike, the source gives them in different places. Bounds are passed on as bounds.

Excerpt for MCF-7 cells: as §5

Take `COc1cc(CCc2cn(Cc3ccccc3)c3nc(N)nc(C)c23)cc(OC)c1OC` [Compound 1]: the GI50 with NCI-H23 is 278 nM; with COLO 205, 190 nM; in the data set with SK-MEL-28 it was > 1000 nM; in the data set with UACC-257, 80.2 nM; with OVCAR-4, 821 nM; in the data set with CAKI-1, 366 nM. The GI50 in the data set with MALME-3M and with HS 578T was 283 nM each time. Also, the “effect on microtubule structure (in words)” value in [1] is reported as “caused dose-dependent losses of microtubules”. Besides, the IC50 turned out to be 300 ± 160 nM with MCF-7 cells (read-out: Cytotoxicity IC50, MCF-7) and 280 ± 10 nM with MCF-7 cells (read-out: drug sensitivity (IC50), MCF-7, Table 4). In addition, the “cytotoxic potency, better than Compound 4 (2-OMe)” value in [2] is on record as 10 fold. Besides, the “effect of P-glycoprotein / MRP1 overexpression on cell sensitivity (in words)” value in [2] was “neither P-glycoprotein nor MRP1 affect cell sensitivity”. In addition, the “cytotoxic potency (in words)” value in [2] (all tested cell lines) is reported as “Submicromolar cytotoxic potency”.
